Measured values taken from ChEMBL document CHEMBL1201862, “PubChem BioAssay data set” (2004).
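Step 1: Grow cells in 96-well plates. Step 2: Expose to compound for 48 hours at 5 concentrations. Step 3: Interpolate endpoints linearly; if unreached, use highest concentration. GI50 marks 50% less growth.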 Active and inactive are the calls of the source. Cut-off read from the data, not from the text of the source: active = GI50 up to about 1.1 µM and inactive = higher.

Assays:
Assay in all cases: DTP human tumour cell line panel, 48 h
HOP-62 = system: HOP-62
SK-MEL-2 = system: SK-MEL-2
HCT-116 = system: HCT-116
LOX IMVI = system: LOX IMVI
SNB-75 = system: SNB-75
OVCAR-8 = system: OVCAR-8
OVCAR-5 = system: OVCAR-5
SF-268 = system: SF-268
SF-295 = system: SF-295
NCI-H23 = system: NCI-H23
NCI-H460 = system: NCI-H460
MOLT-4 = system: MOLT-4
RXF 393 = system: RXF 393
IGROV-1 = system: IGROV-1
UO-31 = system: UO-31
SW-620 = system: SW-620
HCC 2998 = system: HCC 2998
SN12C = system: SN12C
UACC-257 = system: UACC-257
A549 = system: A549

| SMILES | GI50 (HOP-62) | GI50 (SK-MEL-2) | GI50 (HCT-116) | GI50 (LOX IMVI) | GI50 (SNB-75) | GI50 (OVCAR-8) | GI50 (OVCAR-5) | GI50 (SF-268) | GI50 (SF-295) | GI50 (NCI-H23) | GI50 (NCI-H460) | GI50 (MOLT-4) | GI50 (RXF 393) | GI50 (IGROV-1) | GI50 (UO-31) | GI50 (SW-620) | GI50 (HCC 2998) | GI50 (SN12C) | GI50 (UACC-257) | GI50 (A549) |
| --- | --- | --- | --- | --- | --- | --- | --- | --- | --- | --- | --- | --- | --- | --- | --- | --- | --- | --- | --- | --- |
| Cc1cc2c(cc1C)[n+]([O-])c(C#N)c(Cl)[n+]2[O-] | 19.6 µM (inactive) | 17.4 µM (inactive) | 14.1 µM (inactive) | 12.1 µM (inactive) | 1.88 µM (inactive) | 15.3 µM (inactive) | 12.7 µM (inactive) | 18.1 µM (inactive) | 23.7 µM (inactive) | 11.7 µM (inactive) | 11.7 µM (inactive) | 5.05 µM (inactive) | 13.2 µM (inactive) | 10.6 µM (inactive) | 12 µM (inactive) | 11.7 µM (inactive) | 11 µM (inactive) | 13.6 µM (inactive) | 13.8 µM (inactive) | 18.6 µM (inactive) |
| COc1ccccc1/C=C(\C#N)c1ccccc1 | 46.5 µM (inactive) | 27.2 µM (inactive) | 29.1 µM (inactive) | 46.9 µM (inactive) | 25.9 µM (inactive) | 50.5 µM (inactive) | > 100 µM (inactive) | 82.8 µM (inactive) | 52.7 µM (inactive) | 41.5 µM (inactive) | 23.8 µM (inactive) | 16.6 µM (inactive) | 27.7 µM (inactive) | 43.3 µM (inactive) | 28.8 µM (inactive) | 23.7 µM (inactive) | 34.4 µM (inactive) | 49.1 µM (inactive) | 31.1 µM (inactive) | 37 µM (inactive) |
| C[C@@H]1CC[C@H]2[C@H]1[C@H]1[C@@H](CC[C@]2(C)N=C=S)C1(C)C | 31.8 µM (inactive) | 22.8 µM (inactive) | 17.9 µM (inactive) | 59.4 µM (inactive) | 50.5 µM (inactive) | 41.7 µM (inactive) | 28.3 µM (inactive) |  | 21.4 µM (inactive) | 29.5 µM (inactive) | 20.4 µM (inactive) | 13.8 µM (inactive) | 15.5 µM (inactive) | 45 µM (inactive) | 32.1 µM (inactive) | 15.1 µM (inactive) | 16.1 µM (inactive) | 19.6 µM (inactive) | 25.8 µM (inactive) |  |
| COc1ccc(-c2nc3ccc([N+](=O)[O-])cc3c(=O)[nH]2)cc1 | > 45.6 µM (inactive) | 30.3 µM (inactive) | 27.4 µM (inactive) | 30.5 µM (inactive) | 12.7 µM (inactive) | 21.1 µM (inactive) | > 100 µM (inactive) | 20.4 µM (inactive) | 23.8 µM (inactive) | 29.3 µM (inactive) | > 80 µM (inactive) | > 100 µM (inactive) | 26.4 µM (inactive) | 25.1 µM (inactive) | 61.9 µM (inactive) | > 100 µM (inactive) | > 100 µM (inactive) | 66.4 µM (inactive) | > 96.2 µM (inactive) | 53.2 µM (inactive) |
| CCOC(=O)N1C=NC23C(c4ccccc4)C(c4ccccc4)C12C(=O)N(C)C(=O)N3C (stereo not drawn) | > 100 µM (inactive) | > 100 µM (inactive) | > 100 µM (inactive) | > 100 µM (inactive) | > 100 µM (inactive) | > 100 µM (inactive) | > 100 µM (inactive) | > 100 µM (inactive) | > 100 µM (inactive) | > 100 µM (inactive) | > 100 µM (inactive) | > 100 µM (inactive) | 16.3 µM (inactive) | > 100 µM (inactive) | 77.1 µM (inactive) | > 100 µM (inactive) | > 100 µM (inactive) | > 100 µM (inactive) | > 100 µM (inactive) | > 100 µM (inactive) |
| O=C(CC1(O)C(=O)Nc2c(Cl)cc(Cl)cc21)c1ccc([N+](=O)[O-])cc1 (stereo not drawn) | > 100 µM (inactive) | > 56.4 µM (inactive) | > 42.2 µM (inactive) | > 100 µM (inactive) | 29.2 µM (inactive) | > 51.5 µM (inactive) | > 100 µM (inactive) | > 50.8 µM (inactive) | > 66.1 µM (inactive) | 29.9 µM (inactive) | 86.5 µM (inactive) | > 59.4 µM (inactive) | > 100 µM (inactive) | > 52.2 µM (inactive) | 17.4 µM (inactive) | 28.3 µM (inactive) | 38 µM (inactive) | > 45.7 µM (inactive) | 33.3 µM (inactive) | > 79.8 µM (inactive) |
| SC1=Nc2ccccc2-c2nc(-c3ccccc3)cc(-c3ccc(Br)cc3)c2C1 | 1.31 µM (inactive) | 6.47 µM (inactive) | 1.64 µM (inactive) | 2.99 µM (inactive) | 1.26 µM (inactive) | 1.1 µM (active) | 2.81 µM (inactive) | 2.1 µM (inactive) | 1.89 µM (inactive) | 2.65 µM (inactive) | 0.859 µM (active) | 18.2 µM (inactive) | 1.7 µM (inactive) | 1.22 µM (inactive) | 1.57 µM (inactive) | 2.4 µM (inactive) | 3.17 µM (inactive) | 0.791 µM (active) | 3.15 µM (inactive) | 2.32 µM (inactive) |
